Data taken from US7932241B2, “Pharmaceutical products comprising bisphosphonates” (Novartis AG, priority 2003, dated 2011).

Experiment: physchem
Conditions: pKa values
Protocol: Each 800 g of this solution (equivalent to 50 mg of zoledronic acid) are titrated with • (a) a solution of 0.500 g/100 mL trisodium citrate dihydrate in water for injection • (b) a solution of 0.500 g/100 mL anhydrous sodium acetate in water for injection • (c) a solution of 0.500 g/100 mL disodium tartrate dihydrate in water for injection • (d) a solution of 0.500 g/100 mL trisodium phosphate hexahydrate in water for injection • (e) a solution of 0.400 g/100 mL sodium hydroxide in water for injection
The pH value after each addition of 200 μL of base solution is recorded potentiometrically.

`O=P(O)(O)C(O)(Cn1ccnc1)P(=O)(O)O` [zoledronic acid, 2-(imidazol-1yl)-1-hydroxyethane-1,1-diphosphonic acid] showed a pKa of 5.9.
